Source: patent US8030466B2, “3′-o-fluorescently modified nucleotides and uses thereof” (Korea Institute of Science and Technology, priority 2009, dated 2011)

Molecular target: T1, Therminator II DNA polymerase (Thermococcus sp., UniProt Q56366, A485L/D141A/E143A/Y409V)
T1 construct: purchased New England Biolabs, Inc. (printed for the ThermoPol II buffer; inferred for the enzyme)
Test: Extension of DNA primer with MRT by polymerase (MALDI-TOF MS readout)
Format: biochemical
Experimental: The reaction was consisted of 20 cycles at 94° C. for 20 sec, 46° C. for 40 sec, and 60° C. for 90 sec. After the reaction, the mixture was incubated with strepatavidin-coated magnetic beads ([…], Dynabead MyOne, Invitrogen) in PBS buffer ([…]) at room temperature for 30 min.
After removing a fluorescent group from the 3′-end as the same manner as described in Example 4, the obtained DNA was purified by reverse-phased HPLC. The purified DNA was used as a primer for the second extension reaction with the MRT. The extension was performed by the same manner as described in Example 2. The resultant product was characterized using MALDI-TOF mass spectrometry (FIG. 3d).

T1 sequence (Q56366 whole entry D141A/E143A/Y409V/A485L): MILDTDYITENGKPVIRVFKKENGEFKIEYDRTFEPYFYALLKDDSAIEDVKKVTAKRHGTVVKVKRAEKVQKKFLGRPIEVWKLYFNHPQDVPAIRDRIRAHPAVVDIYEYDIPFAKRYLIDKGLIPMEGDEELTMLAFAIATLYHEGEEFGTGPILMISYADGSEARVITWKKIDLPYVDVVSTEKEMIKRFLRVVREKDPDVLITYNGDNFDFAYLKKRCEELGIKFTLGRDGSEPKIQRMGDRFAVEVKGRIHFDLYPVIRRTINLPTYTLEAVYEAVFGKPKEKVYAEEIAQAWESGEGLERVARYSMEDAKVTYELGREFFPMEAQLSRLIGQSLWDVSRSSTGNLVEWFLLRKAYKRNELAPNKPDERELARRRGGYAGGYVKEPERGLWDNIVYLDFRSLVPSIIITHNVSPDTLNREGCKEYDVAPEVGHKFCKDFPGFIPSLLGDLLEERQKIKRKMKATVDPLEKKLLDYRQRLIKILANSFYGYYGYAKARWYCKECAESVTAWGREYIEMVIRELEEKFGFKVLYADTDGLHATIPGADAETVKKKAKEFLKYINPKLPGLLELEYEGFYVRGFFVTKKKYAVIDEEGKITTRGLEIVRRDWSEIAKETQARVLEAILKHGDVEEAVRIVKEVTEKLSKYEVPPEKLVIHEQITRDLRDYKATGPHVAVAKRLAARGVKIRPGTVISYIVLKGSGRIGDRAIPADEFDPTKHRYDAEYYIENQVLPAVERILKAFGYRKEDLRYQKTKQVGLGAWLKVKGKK

## 3′-O-(7-hydroxycoumarin)-dTTP [Compound 13]
Biotinylated primer/template, 4 units Therminator II DNA polymerase, 20 cycles
  primer extension by MRT: the primer was extended by MRT
deprotected, HPLC-purified extended primer used as primer, Therminator II DNA polymerase
  second primer extension by MRT after label elimination: the primer chain could be extended again by another MRT
